# Measurements as given in PubChem BioAssay AID2060627 (Molecular Pharmacology Branch, DTP, NCI, 2025).
# System: 156681-154-R-J1-PDC complex spheroid viability
# Test: Anticancer human tumor 156681-154-R-J1-PDC patient-derived melanoma cell line growth inhibition [CLK]
# Settings: for IC50: curve of first compound; for viability, T/C: stronger effect = lower value
# Outline: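 Patient-derived tumor cells grown as complex spheroids with HUVEC endothelial cells and mesenchymal stem cells, treated with drug combinations. Concentrations descend in half-log steps from near clinical Cmax, or from 10 microM if Cmax unknown.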
# [1] = second compound 0.0316 µM, first compound 0.0316 µM
# [2] = second compound 0.0316 µM, first compound 0.1 µM
# [3] = second compound 0.0316 µM, first compound 0.316 µM
# [4] = second compound 0.0316 µM, first compound 1 µM
# [5] = second compound 0.0316 µM, first compound 3.16 µM
# [6] = second compound 0.0316 µM, first compound 10 µM
# [7] = second compound 0.1 µM, first compound 0.0316 µM
# [8] = second compound 0.1 µM, first compound 0.1 µM
# [9] = second compound 0.1 µM, first compound 0.316 µM
# [10] = second compound 0.1 µM, first compound 1 µM
# [11] = second compound 0.1 µM, first compound 3.16 µM
# [12] = second compound 0.1 µM, first compound 10 µM
# [13] = second compound 0.316 µM, first compound 0.0316 µM
# [14] = second compound 0.316 µM, first compound 0.1 µM
# [15] = second compound 0.316 µM, first compound 0.316 µM
# [16] = second compound 0.316 µM, first compound 1 µM
# [17] = second compound 0.316 µM, first compound 3.16 µM
# [18] = second compound 0.316 µM, first compound 10 µM
# [19] = second compound 1 µM, first compound 0.0316 µM
# [20] = second compound 1 µM, first compound 0.1 µM
# [21] = second compound 1 µM, first compound 0.316 µM
# [22] = second compound 1 µM, first compound 1 µM
# [23] = second compound 1 µM, first compound 3.16 µM
# [24] = second compound 1 µM, first compound 10 µM
# [25] = second compound 3.16 µM, first compound 0.0316 µM
# [26] = second compound 3.16 µM, first compound 0.1 µM
# [27] = second compound 3.16 µM, first compound 0.316 µM
# [28] = second compound 3.16 µM, first compound 1 µM
# [29] = second compound 3.16 µM, first compound 3.16 µM
# [30] = second compound 3.16 µM, first compound 10 µM
# [31] = second compound 10 µM, first compound 0.0316 µM
# [32] = second compound 10 µM, first compound 0.1 µM
# [33] = second compound 10 µM, first compound 0.316 µM
# [34] = second compound 10 µM, first compound 1 µM
# [35] = second compound 10 µM, first compound 3.16 µM
# [36] = second compound 10 µM, first compound 10 µM
# 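Also: spheroids exposed to the agents for seven days.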
# 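For viability, T/C in this document: 100% = DMSO vehicle control viability.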
structure (smiles),measurement,setting,value
CC(C)CC(NC(=O)C(Cc1ccccc1)NC(=O)c1cnccn1)B(O)O (stereo unspecified) + CN1CCN(c2cc(C(=O)Nc3cc4cc(-c5cnn(C)c5)ccc4cn3)ccn2)CC1,IC50,second compound 0.0316 µM,< 0.949 nM
same,IC50,second compound 0.1 µM,< 0.949 nM
same,IC50,second compound 0.316 µM,< 0.949 nM
same,IC50,second compound 1 µM,< 0.949 nM
same,IC50,second compound 3.16 µM,< 0.949 nM
same,IC50,second compound 10 µM,< 0.949 nM
same,"viability, T/C","second compound 0.0316 µM, first compound 0.000949 µM",30.4%
same,"viability, T/C","second compound 0.0316 µM, first compound 0.003 µM",2%
same,"viability, T/C","second compound 0.0316 µM, first compound 0.00949 µM",1.41%
same,"viability, T/C","second compound 0.0316 µM, first compound 0.03 µM",0.26%
same,"viability, T/C","second compound 0.0316 µM, first compound 0.0949 µM",1.66%
same,"viability, T/C","second compound 0.0316 µM, first compound 0.3 µM",1.32%
same,"viability, T/C","second compound 0.1 µM, first compound 0.000949 µM",28%
same,"viability, T/C","second compound 0.1 µM, first compound 0.003 µM",0.48%
same,"viability, T/C","second compound 0.1 µM, first compound 0.00949 µM",1.04%
same,"viability, T/C","second compound 0.1 µM, first compound 0.03 µM",0.2%
same,"viability, T/C","second compound 0.1 µM, first compound 0.0949 µM",0.26%
same,"viability, T/C","second compound 0.1 µM, first compound 0.3 µM",0.77%
same,"viability, T/C","second compound 0.316 µM, first compound 0.000949 µM",13%
same,"viability, T/C","second compound 0.316 µM, first compound 0.003 µM",0.37%
same,"viability, T/C","second compound 0.316 µM, first compound 0.00949 µM",0.66%
same,"viability, T/C","second compound 0.316 µM, first compound 0.03 µM",0.14%
same,"viability, T/C","second compound 0.316 µM, first compound 0.0949 µM",0.29%
same,"viability, T/C","second compound 0.316 µM, first compound 0.3 µM",1.48%
same,"viability, T/C","second compound 1 µM, first compound 0.000949 µM",0.13%
same,"viability, T/C","second compound 1 µM, first compound 0.003 µM",0.37%
same,"viability, T/C","second compound 1 µM, first compound 0.00949 µM",0.14%
same,"viability, T/C","second compound 1 µM, first compound 0.03 µM",0.09%
same,"viability, T/C","second compound 1 µM, first compound 0.0949 µM",1.37%
same,"viability, T/C","second compound 1 µM, first compound 0.3 µM",0.12%
same,"viability, T/C","second compound 3.16 µM, first compound 0.000949 µM",0.33%
same,"viability, T/C","second compound 3.16 µM, first compound 0.003 µM",1.51%
same,"viability, T/C","second compound 3.16 µM, first compound 0.00949 µM",0.09%
same,"viability, T/C","second compound 3.16 µM, first compound 0.03 µM",0.08%
same,"viability, T/C","second compound 3.16 µM, first compound 0.0949 µM",3.52%
same,"viability, T/C","second compound 3.16 µM, first compound 0.3 µM",1.36%
same,"viability, T/C","second compound 10 µM, first compound 0.000949 µM",0.1%
same,"viability, T/C","second compound 10 µM, first compound 0.003 µM",1.45%
same,"viability, T/C","second compound 10 µM, first compound 0.00949 µM",2.17%
same,"viability, T/C","second compound 10 µM, first compound 0.03 µM",0.1%
same,"viability, T/C","second compound 10 µM, first compound 0.0949 µM",1.66%
same,"viability, T/C","second compound 10 µM, first compound 0.3 µM",0.84%
CC1COCCN1c1cc(C2(S(C)(=N)=O)CC2)nc(-c2ccnc3[nH]ccc23)n1 (stereo unspecified) + CN1CCN(c2cc(C(=O)Nc3cc4cc(-c5cnn(C)c5)ccc4cn3)ccn2)CC1,IC50,second compound 0.0316 µM,1200 nM
same,IC50,second compound 0.1 µM,1110 nM
same,IC50,second compound 0.316 µM,< 31.6 nM
same,IC50,second compound 1 µM,< 31.6 nM
same,IC50,second compound 3.16 µM,< 31.6 nM
same,IC50,second compound 10 µM,< 31.6 nM
same,"viability, T/C",[1],94.5%
same,"viability, T/C",[2],98.7%
same,"viability, T/C",[3],85%
same,"viability, T/C",[4],54%
same,"viability, T/C",[5],25.6%
same,"viability, T/C",[6],13%
same,"viability, T/C",[7],88.2%
same,"viability, T/C",[8],91.1%
same,"viability, T/C",[9],78.2%
same,"viability, T/C",[10],53.1%
same,"viability, T/C",[11],22.6%
same,"viability, T/C",[12],11.9%
same,"viability, T/C",[13],22.2%
same,"viability, T/C",[14],20.3%
same,"viability, T/C",[15],19.3%
same,"viability, T/C",[16],18.1%
same,"viability, T/C",[17],9.6%
same,"viability, T/C",[18],5.87%
same,"viability, T/C",[19],0.2%
same,"viability, T/C",[20],1.01%
same,"viability, T/C",[21],0.26%
same,"viability, T/C",[22],1.47%
same,"viability, T/C",[23],0.89%
same,"viability, T/C",[24],0.75%
same,"viability, T/C",[25],0.13%
same,"viability, T/C",[26],0.38%
same,"viability, T/C",[27],0.22%
same,"viability, T/C",[28],0.27%
same,"viability, T/C",[29],2.37%
same,"viability, T/C",[30],1.99%
same,"viability, T/C",[31],0.16%
same,"viability, T/C",[32],1.25%
same,"viability, T/C",[33],0.69%
same,"viability, T/C",[34],1.26%
same,"viability, T/C",[35],1.36%
same,"viability, T/C",[36],1.82%
O=C(c1cc(Cc2n[nH]c(=O)c3ccccc23)ccc1F)N1CCN(C(=O)C2CC2)CC1 + CN1CCN(c2cc(C(=O)Nc3cc4cc(-c5cnn(C)c5)ccc4cn3)ccn2)CC1,IC50,second compound 0.0316 µM,> 10000 nM
same,IC50,second compound 0.1 µM,> 10000 nM
same,IC50,second compound 0.316 µM,< 31.6 nM
same,IC50,second compound 1 µM,< 31.6 nM
same,IC50,second compound 3.16 µM,< 31.6 nM
same,IC50,second compound 10 µM,< 31.6 nM
same,"viability, T/C",[1],104%
same,"viability, T/C",[2],110%
same,"viability, T/C",[3],89.1%
same,"viability, T/C",[4],76.5%
same,"viability, T/C",[5],75.3%
same,"viability, T/C",[6],64.6%
same,"viability, T/C",[7],87.9%
same,"viability, T/C",[8],74.5%
same,"viability, T/C",[9],70.3%
same,"viability, T/C",[10],74.4%
same,"viability, T/C",[11],76.4%
same,"viability, T/C",[12],55.7%
same,"viability, T/C",[13],19.1%
same,"viability, T/C",[14],19.4%
same,"viability, T/C",[15],20.1%
same,"viability, T/C",[16],18%
same,"viability, T/C",[17],17.7%
same,"viability, T/C",[18],21.2%
same,"viability, T/C",[19],0.14%
same,"viability, T/C",[20],1.63%
same,"viability, T/C",[21],0.21%
same,"viability, T/C",[22],0.5%
same,"viability, T/C",[23],0.68%
same,"viability, T/C",[24],1.61%
same,"viability, T/C",[25],0.08%
same,"viability, T/C",[26],1.74%
same,"viability, T/C",[27],1.83%
same,"viability, T/C",[28],0.06%
same,"viability, T/C",[29],0.24%
same,"viability, T/C",[30],0.71%
same,"viability, T/C",[31],0.1%
same,"viability, T/C",[32],2.76%
same,"viability, T/C",[33],1.36%
same,"viability, T/C",[34],2.17%
same,"viability, T/C",[35],1.6%
same,"viability, T/C",[36],0.56%
